Data on 3 molecules can be found in patent US20060142323A1, “Dual binding site acetylcholinesterase inhibitors for the treatment of alzheimer's disease” (priority 2002, published 2006).

The target in series [1] is T1, AChE from human erythrocytes (Homo sapiens, UniProt P22303).
T1 construct: 0.02 unit/ml AChE (Sigma Chemical Co. from human erythrocytes); purchased Sigma Chemical Co; host or cells: human erythrocytes
The series can be described thus: AChE inhibition (from human erythrocytes), Ellman method. As to conditions: 10 min preincubation at 30° C., 400 μM acetylthiocholine iodide, pH 8. Format: biochemical. How it is done: AChE Inhibition (from Human Erythrocytes)
The method of Ellman et al. (Ellman, G. L.; Courtney, K. D.; Andres, B.; Featherstone, R. M. Biochem. Pharmacol. 1961, 7, 88-95) was followed. The assay solution consisted of 0.1 M phosphate buffer pH 8, 200 μM 5,5′-dithiobis(2-nitrobenzoic acid) (DTNB, Ellan's reagent), 0.02 unit/ml AChE (Sigma Chemical Co. from human erythrocytes), and 400 μM acetylthiocholine iodide as the substrate of the enzymatic reaction. The compounds tested were added to the assay solution and pre incubated with the enzyme for 10 min at 30° C. After that period, the substrate was added. The absorbance changes at 412 nm were recorded for 5 min with a Perkin-Elmer 550 SE UV/VIS spectrometer, the reaction rates were compared, and the percent inhibition due to the presence of test compounds was calculated.
For orientation: DTNB colorimetry detects thiols as they appear.

Another series addresses T2, AChE from N2A cells (Mus musculus, UniProt P21836).
T2 construct: The assay solution consisted of AChE from neuronal cells; endogenous in cells; host or cells: N2A neuroblastoma cells
T2 sequence (P21836 32-614): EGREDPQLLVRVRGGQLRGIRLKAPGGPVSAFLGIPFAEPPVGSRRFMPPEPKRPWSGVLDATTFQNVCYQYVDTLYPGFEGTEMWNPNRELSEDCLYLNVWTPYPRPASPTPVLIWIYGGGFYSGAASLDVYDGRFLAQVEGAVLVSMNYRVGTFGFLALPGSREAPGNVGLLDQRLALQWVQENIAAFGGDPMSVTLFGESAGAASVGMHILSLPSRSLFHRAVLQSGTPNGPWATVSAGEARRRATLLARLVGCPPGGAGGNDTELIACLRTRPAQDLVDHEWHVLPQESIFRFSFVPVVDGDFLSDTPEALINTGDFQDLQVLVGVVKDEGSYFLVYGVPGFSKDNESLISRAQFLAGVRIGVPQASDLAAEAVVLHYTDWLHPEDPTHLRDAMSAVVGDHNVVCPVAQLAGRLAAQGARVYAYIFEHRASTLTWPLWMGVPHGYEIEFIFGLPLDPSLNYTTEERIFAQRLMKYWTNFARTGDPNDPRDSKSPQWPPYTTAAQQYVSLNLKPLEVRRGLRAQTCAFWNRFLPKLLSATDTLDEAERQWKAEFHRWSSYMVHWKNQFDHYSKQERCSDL
The series can be described thus: Neuronal AChE activity, enzyme preparation from N2A cells. Format: biochemical. As to conditions: pH 8, 0.5 mM acetylthiocholine iodide, read-out: IC50 AChE N2A (rat neuroblastoma). The method, then:
(§1) Acetylcholinesterase (AChE) enzyme preparations were obtained from SH—SY5Y, SK—N—SH and N2A cells.
(§2) CELL CULTURE: The human neuroblastoma cell line SH—SY5Y was cultured in minimum essential medium, Han's F12 medium, supplemented with 10% fetal bovine serum and 1% penicillin/streptomycin, and grown in a 5% CO2 humidified incubator at 37° C. […] The rat neuroblastoma cell line N2A was cultured in DULBECCO'S MOD EAGLE medium, supplemented with 10% fetal bovine serum and 1% penicillin/streptomycin, and grown in a 5% CO2 humidified incubator at 37° C. The cells were plated at 250 10^3 cells for each reaction, at least, 48 hours before the AChE activity measure. Cells were washed and harvested in 0.1 M sodium phosphate buffer pH 8, at 4° C.
(§3) The assay solution consisted of AChE from neuronal cells, 0.1 M phosphate buffer pH 8, 0.3 mM 5,5′-dithiobis (2-nitrobenzoic acid) (DTNB, Ellman-s reagent), and 0.5 mM acetylthiocholine iodide as the substrate of the enzymatic reaction. […] The reaction rate was calculated with, at least, triplicate measurements, and the percent inhibition due to the presence of test compound was calculated relative to the compound-free control.

Another series has as its target T3, AChE from SK—N—SH cells (Homo sapiens, UniProt P22303).
T3 construct: The assay solution consisted of AChE from neuronal cells; endogenous in cells; host or cells: SK-N-SH human neuroblastoma cells
The series can be described thus: Neuronal AChE activity, enzyme preparation from SK-N-SH cells. It is filed as biochemical. The method, then: as §1, §2, §3

Another series addresses T4, AChE from SH—SY5Y cells (Homo sapiens, UniProt P22303).
T4 construct: The assay solution consisted of AChE from neuronal cells; endogenous in cells; host or cells: SH-SY5Y human neuroblastoma cells
The series can be described thus: Neuronal AChE activity, enzyme preparation from SH-SY5Y cells. Format: biochemical. As to conditions: pH 8, 0.5 mM acetylthiocholine iodide, read-out: IC50 AChE SH-SY5Y (human neuroblastoma). The method, then: as §1, §2, §3

The next series concerns the target T5, β-amyloid-AChE complex (Homo sapiens, UniProt P22303).
T5 construct: purchased Sigma-Aldrich
The series can be described thus: Inhibition of β-amyloid aggregation (AChE-Aβ complex, Congo Red binding). It is filed as biochemical. As to conditions: compound at its AChE IC50, Aβ1-40 0.1 mM, Aβ-AChE 200:1, 48 hours. How it is done: Inhibition of β-Amyloid Aggregation:
Stock solutions of Aβ1-40 at 3.5 mM were prepared in DMSO. The amount of peptide used in the assays was 0.1 mM. Human recombinant AChE (Sigma-Aldrich) was used at a molar ratio Aβ-AChE 200:1. For the aggregation studies the peptide was mixed with the appropriate amount of AChE in PBS pH 7.4 and stirred for 48 hours in -a microtiter plate at room temperature. The fibrils obtained were characterized by Congo Red (CR) binding.
For the inhibition of β-amyloid aggregation, the compounds tested were used at the IC50 defined in the previous paragraph of the biological evaluation. Propidium iodide 50 μM for comparison.

The target in series [2] is T6, AChE from bovine erythrocytes (Bos taurus, UniProt P23795).
T6 construct: 0.02 units AChE (Sigma Chemical Co. from bovine erythrocytes); purchased Sigma Chemical Co; host or cells: bovine erythrocytes
T6 sequence (P23795 31-614 isoform P23795-2 limits assumed): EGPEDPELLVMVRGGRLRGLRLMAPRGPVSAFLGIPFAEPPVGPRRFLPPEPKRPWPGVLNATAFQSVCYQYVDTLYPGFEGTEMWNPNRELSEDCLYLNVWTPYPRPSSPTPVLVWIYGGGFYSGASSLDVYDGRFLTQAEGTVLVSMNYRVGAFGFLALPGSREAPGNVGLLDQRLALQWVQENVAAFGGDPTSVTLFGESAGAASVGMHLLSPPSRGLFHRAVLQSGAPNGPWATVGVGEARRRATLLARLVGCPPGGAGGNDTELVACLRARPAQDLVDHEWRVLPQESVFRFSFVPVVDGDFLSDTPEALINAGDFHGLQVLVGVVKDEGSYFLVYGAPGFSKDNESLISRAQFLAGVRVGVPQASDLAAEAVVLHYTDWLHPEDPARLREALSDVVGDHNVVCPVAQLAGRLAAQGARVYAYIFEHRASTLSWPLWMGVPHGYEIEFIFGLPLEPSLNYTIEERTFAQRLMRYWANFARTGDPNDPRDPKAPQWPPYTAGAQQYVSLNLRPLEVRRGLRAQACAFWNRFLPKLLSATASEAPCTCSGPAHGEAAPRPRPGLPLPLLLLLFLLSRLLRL
The series can be described thus: AChE inhibition (from bovine erythrocytes), Ellman method at 25° C., Fluostar reader. It is filed as biochemical. As to conditions: 0.5 mM acetylthiocholine iodide, pH 8, 10 min preincubation. The method, then:
AChE Inhibition (from Bovine Erythocytes)
AChE inhibitory activity was evaluated at 25° C. by the colorimetric method reported by Ellman (Ellman, G. L.; Courtney, K. D.; Andres, B.; Featherstone, R. M. Biochem. Pharmacol. 1961, 7, 88-95). The assay solution consisted on 0.02 unit/ml AChE from bovine erythrocytes, 0.1 M sodium phosphate buffer pH 8, 0.3 mM 5,5′-dithiobis (2-nitrobenzoic […]), and 0.5 mM acetylthiocholine iodide as the substrate of the enzymatic reaction. Enzyme activity was determined by measuring the absorbance at 405 nm during 10 minutes with a Fluostar optima plate reader (BMG). The tested compounds were preincubated with the enzyme for 10 minutes at 30° C.

Series [3] concerns the target T6, AChE from bovine erythrocytes. The series can be described thus: Acetylcholinesterase (AChE) inhibition (from bovine erythrocytes), Ellman method at 30° C., Digiscan 340T. It is filed as biochemical. As to conditions: bovine erythrocytes AChE, 30° C., 5 min preincubation; read-out: IC50 AchE. The method, then:
Acetylcholinesterase (AChE) Inhibition (from Bovine Erythrocytes)
AChE inhibitory activity was evaluated at 30° C. by the colorimetric method reported by Ellman [Ellman, G. L.; Courtney, K. D.; Andres, B.; Featherstone, R. M. Biochem. Pharmacol. 1961, 7, 88-95]. The assay solution consisted of 0.1 M phosphate buffer pH 8, 0.3 mM 5,5′-dithiobis (2-nitrobenzoic acid) (DTNB, Ellman's reagent), 0.02 units AChE (Sigma Chemical Co. from bovine erythrocytes), and 0.5 mM acetylthiocholine iodide as the substrate of the enzymatic reaction. The compounds tested were added to the assay solution and preincubated with the enzyme for 5 min at 30° C. After that period, the substrate was added. The absorbance changes at 405 nm were recorded for 5 min with a microplate reader Digiscan 340T, the reaction rates were compared, and the percent inhibition due to the presence of test compounds was calculated. The reaction rate was calculated with, at least, triplicate measurements, and the percent inhibition due to the presence of test compound was calculated relative to the compound-free control.

The next series deals with T7, BuChE from human serum (Homo sapiens, UniProt P06276).
T7 construct: The assay solution consisted of 0.01 units BuChE from human serum; from tissue; host or cells: human serum
T7 sequence (P06276 29-602): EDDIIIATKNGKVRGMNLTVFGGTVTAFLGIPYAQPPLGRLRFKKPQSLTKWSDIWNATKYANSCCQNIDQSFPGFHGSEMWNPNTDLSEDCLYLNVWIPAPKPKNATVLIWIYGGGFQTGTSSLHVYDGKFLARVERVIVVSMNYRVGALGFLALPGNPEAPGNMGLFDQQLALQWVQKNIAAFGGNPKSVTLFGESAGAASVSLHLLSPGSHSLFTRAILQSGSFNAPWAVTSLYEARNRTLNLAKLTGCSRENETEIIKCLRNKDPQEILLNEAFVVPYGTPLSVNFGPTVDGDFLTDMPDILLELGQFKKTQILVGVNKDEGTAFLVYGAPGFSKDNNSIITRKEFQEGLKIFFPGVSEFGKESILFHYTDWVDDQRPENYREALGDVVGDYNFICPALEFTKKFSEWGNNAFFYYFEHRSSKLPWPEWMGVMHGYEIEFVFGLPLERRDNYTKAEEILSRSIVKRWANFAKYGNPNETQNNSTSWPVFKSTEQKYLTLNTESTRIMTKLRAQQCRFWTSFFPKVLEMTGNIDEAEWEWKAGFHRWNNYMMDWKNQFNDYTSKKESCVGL
The series can be described thus: Butyrylcholinesterase (BuChE) inhibition (from human serum). Format: biochemical. As to conditions: human serum BuChE, 30° C., 10 min preincubation; read-out: IC50 BuChE. The method, then:
Butyrylcholinetersae (BuChE) Inhibition (from Human Serum)
BuChE inhibitory activity was evaluated at 30° C. by the colorimetric method reported by Ellman (Ellman, G. L.; Courtney, K. D.; Andres, B.; Featherstone, R. M. Biochem. Pharmacol. 1961, 7, 88-95]. The assay solution consisted of 0.01 units BuChE from human serum, 0.1 M sodium phosphate buffer pH 8, 0.3 mM 5,5′-dithiobis (2-nitrobenzoic acid) (DTNB, Ellman's reagent), and 0.5 mM butylthiocholine iodide as the substrate of the enzymatic reaction. Enzyme activity was determined by measuring the absorbance at 405 nm during 5 minutes with a microplate reader Digiscan 340T. The tested compounds were preincubated with the enzyme for 10 minutes at 30° C. The reaction rate was calculated with, at least, triplicate measurements.

Series [4] relates to human neuroblastoma cell line SH—SY5Y. The series can be described thus: Toxicity measurement (LDH) in SH-SY5Y cells. As to conditions: 24 hours exposure. Format: cell-based. The method, then: The cytotoxicity effect of the molecules was tested in the human neuroblastoma cell line SH—SY5Y. These cells were cultured in 96-well plates in minimum essential medium, Han's F12 medium, supplemented with 10% fetal bovine serum, 1% glutamine and 1% penicillin/streptomycin, and grown in. a 5% CO2 humidified incubator at 37° C.
The cells were plated at 10^4 cells for each well, at least, 48 hours before the toxicity measure. Cells were exposed for 24 hours to the compounds at different concentrations (from 10^−5 to 10^−9), quantitative assessment of cell death was made by measurement of the intracellular enzyme lactate dehydrogenase (LDH) (citotoxicity detection kit, Roche). The cuantity of LDH was evaluated in a microplate reader Anthos 2010, at 492 and 620 nm. Controls were taken as 100% viability.

A further series has as its target AChE peripheral site (Homo sapiens, UniProt P22303). The series can be described thus: Propidium competition (fluorescence). The settings on record: 20 μM propidium iodide, AChE incubated at least 6 hours with compound. Format: binding. The method, then:
Fluorescence was measured in a Fluostar optima plate reader (BMG). Measurements were carried out in 100 μl solution volume, in 96-well plates. The buffer used was 1 mM Tris/HCl, pH 8.0. […] AChE was incubated, at least 6 hours, with the molecules at different concentrations. 20 μM propidium iodide was added 10 min before fluorescence measurement.

Series [5] relates to SH—SY5Y cells exposed to β-amyloid fragment 25-35. The series can be described thus: Effects on β-amyloid toxicity (fragment 25-35, LDH viability). It is filed as cell-based, human. As to conditions: 1 hour pretreatment, Aβ 25-35 at 200 μM, 24 hours. How it is done:
Effects on β-Amiloid Toxicity
We have tested if some of these molecules interfere with amyloid peptide toxicity. Cells SH—SY5Y were cultured in 96-well plates as toxicity experiments. Cells were pretreated for 1 hour with the compounds at different concentrations (from 10^−5 to 10^−9), immediately neuronal death is induced adding synthetic peptide β-amyloid, fragment 25-35 (A25-35) at 200 μM. 24 hours later cell viability was assessed with the LDH assay; results are reported relative to untreated wells.

AChE peripheral site, sequence (P22303 32-614): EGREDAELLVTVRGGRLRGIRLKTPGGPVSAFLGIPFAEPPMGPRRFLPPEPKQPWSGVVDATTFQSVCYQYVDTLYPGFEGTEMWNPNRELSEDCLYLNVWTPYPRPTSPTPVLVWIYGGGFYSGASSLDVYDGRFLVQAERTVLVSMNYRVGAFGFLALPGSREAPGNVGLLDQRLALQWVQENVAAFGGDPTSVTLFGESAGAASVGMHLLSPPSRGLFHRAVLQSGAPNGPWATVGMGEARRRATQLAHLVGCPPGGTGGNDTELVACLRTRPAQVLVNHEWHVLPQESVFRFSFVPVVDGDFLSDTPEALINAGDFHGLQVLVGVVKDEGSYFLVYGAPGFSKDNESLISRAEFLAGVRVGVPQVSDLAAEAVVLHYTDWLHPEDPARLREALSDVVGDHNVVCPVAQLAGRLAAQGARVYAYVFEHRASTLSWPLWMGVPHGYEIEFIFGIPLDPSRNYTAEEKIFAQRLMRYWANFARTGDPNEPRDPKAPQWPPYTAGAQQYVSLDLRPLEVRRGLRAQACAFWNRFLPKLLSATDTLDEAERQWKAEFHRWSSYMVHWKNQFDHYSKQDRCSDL
T3 sequence (P22303 32-614): as above
T5 sequence (P22303 32-614, one chain of several): as the sequence (P22303 32-614) above
T4 sequence (P22303 32-614): as above
T1 sequence (P22303 32-617 isoform P22303-2 limits assumed): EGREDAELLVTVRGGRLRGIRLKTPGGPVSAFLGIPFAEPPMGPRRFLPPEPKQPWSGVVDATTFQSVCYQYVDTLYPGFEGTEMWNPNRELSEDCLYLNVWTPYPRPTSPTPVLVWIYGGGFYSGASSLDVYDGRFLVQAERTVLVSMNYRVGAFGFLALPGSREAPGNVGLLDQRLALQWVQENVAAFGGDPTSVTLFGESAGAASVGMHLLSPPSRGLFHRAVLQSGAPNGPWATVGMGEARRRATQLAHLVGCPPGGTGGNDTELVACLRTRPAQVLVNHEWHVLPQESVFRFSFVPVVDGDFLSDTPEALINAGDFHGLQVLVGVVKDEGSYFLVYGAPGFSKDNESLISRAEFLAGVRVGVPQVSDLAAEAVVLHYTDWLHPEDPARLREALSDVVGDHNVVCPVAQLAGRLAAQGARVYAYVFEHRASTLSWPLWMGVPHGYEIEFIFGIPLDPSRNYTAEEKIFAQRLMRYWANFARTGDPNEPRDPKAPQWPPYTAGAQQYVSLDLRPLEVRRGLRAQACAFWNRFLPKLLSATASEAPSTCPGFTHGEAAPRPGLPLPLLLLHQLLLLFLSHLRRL

A word on the IC50: it is the concentration that inhibits the measured activity by half. Regarding `COc1cc2c(cc1OC)C(=O)C(CNCCCCCCCNc1c3c(nc4ccccc14)CCCC3)C2` (stereo not drawn) [Compound 1, 5,6-Dimethoxy-2-{[7-(1,2,3,4-tetrahydro-acridin-9-ylamino)-heptylamino]-methyl}-indan-1-one], the IC50 in series [1] stood at 25 nM; on AChE from N2A cells, 209 nM; against AChE from SK—N—SH cells, 109 nM; on AChE from SH—SY5Y cells it was 4350 nM. In addition, on β-amyloid-AChE complex, the “reduction of the β-amyloid-AChE complex aggregation” value was 18.7%.

Turning to `CCCn1s/c(=N\CCCCCCCNc2c3c(nc4ccccc24)CCCC3)n(CC)c1=O` [Compound 16, 4-Ethyl-2-propyl-5-[7-(1,2,3,4-tetrahydro-acridin-9-ylamino)-heptyl-imino]-[1,2,4]thiadiazolidin-3-one], the figures for the IC50 (in series [2]; in series [3]; at BuChE from human serum) were 203 nM, 450 nM and 20 nM, respectively. The Toxicity in series [4] came to 50 µM. For the same molecule, at AChE peripheral site, the Propidium competition is over 100 µM.

With `Clc1ccc2c(NCCCCCCCNc3c4ccccc4nc4ccccc34)c3c(nc2c1)CCCC3` [Compound 23, N-Acridin-9-yl-N′-(6-chloro-1,2,3,4-tetrahydro-acridin-9-yl)-heptane-1,7-diamine], the IC50 in [3] is 0.4 nM; at BuChE from human serum it was 20 nM. This molecule gave a Toxicity in series [4] of 0.5 µM. The Propidium competition on AChE peripheral site was 1 µM. Besides, the “inhibition of Aβ(25-35) toxicity” value in series [5] turned out to be 1 µM.
